Consider 1 compound from PMC3854447, “Functional characterisation of three members of the Vitis vinifera L. carotenoid cleavage dioxygenase gene family” (BMC Plant Biology, 2013).

The target in this test is T1, VvCCD1 (Vitis vinifera, UniProt U3M7F6).
T1 construct: gene CCD1; 1715 bp coding region from Pinotage cDNA, NdeI/PstI in pTWIN1, expressed in carotenoid-accumulating E. coli
As to the kind of experiment: co-expression in carotenoid-accumulating E. coli, HS-SPME GC/MS of volatile apocarotenoid. It counts as cell-based. The conditions noted are these: beta-carotene strain (pAC-BETA); product beta-ionone; Fe2+ and ascorbate added; room temperature, 16 h, dark.

T1 sequence (U3M7F6 1-542): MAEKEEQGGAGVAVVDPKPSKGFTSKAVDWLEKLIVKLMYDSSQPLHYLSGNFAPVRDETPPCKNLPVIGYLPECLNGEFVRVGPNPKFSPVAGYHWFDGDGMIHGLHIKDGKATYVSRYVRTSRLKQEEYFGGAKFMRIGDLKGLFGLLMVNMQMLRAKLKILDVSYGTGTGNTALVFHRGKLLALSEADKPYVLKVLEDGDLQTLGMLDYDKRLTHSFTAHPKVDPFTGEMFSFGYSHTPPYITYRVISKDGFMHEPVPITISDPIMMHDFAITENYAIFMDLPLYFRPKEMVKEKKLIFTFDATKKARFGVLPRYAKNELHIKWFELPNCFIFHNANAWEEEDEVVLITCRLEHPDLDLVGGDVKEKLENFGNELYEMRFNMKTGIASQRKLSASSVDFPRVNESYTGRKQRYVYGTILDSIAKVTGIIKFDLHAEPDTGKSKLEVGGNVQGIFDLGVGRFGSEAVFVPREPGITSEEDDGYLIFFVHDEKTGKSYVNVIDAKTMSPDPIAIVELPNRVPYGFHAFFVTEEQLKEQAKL

For `CC1=C(/C=C/C(C)=C/C=C/C(C)=C/C=C/C=C(C)/C=C/C=C(C)/C=C/C2=C(C)CCCC2(C)C)C(C)(C)CCC1` [β-carotene], the “co-expression in carotenoid-accumulating E. coli, HS-SPME GC/MS of volatile apoc” value is on record as “Only VvCCD1, however, catalysed β-carotene cleavage to form β-ionone”.
